Entries after “also recorded” stand apart in the source; their conditions may differ. Where two headings read alike, the source gives them in different places.
Assays:
[1] = H2O2-dependent oxidation of 3,3′-diaminobenzidine (DAB) by lesions in AD brain tissue sections after chelator treatment; parameters: species or system human; conditions: prior treatment of AD brain tissue sections
Excerpt: AD is associated with abnormalities of iron metabolism including increased levels of free iron as well as altered levels of iron transport and storage proteins. […] In addition to the NFT and Aβ deposits, redox active metals can be identified in the cytoplasm by the same DAB reaction. […] Although in situ histochemical techniques lack the sensitivity to detect copper, copper (as well as iron) could contribute to the redox activity. The relative effectiveness of copper- and iron-selective chelating agents was used to remove the lesion-dependent redox activity, which provided evidence for both copper- and iron-mediated redox activity in AD. […] Also, DAB oxidation was inhibited by chelation of metals with […]

Mut Tg fibroblasts = conditions: Oltipraz 10, 25 and 50 μM; fibroblasts treated with toxic levels of BSO
Procedure: (§1) Primary fibroblast cultures were prepared from normal mice (non Tg), mice transfected to produce human wild type presenilin 1 (WT Tg) or mice transfected to produce mutant human presenilin 1 (Mut Tg). All mice are derived from an identical genetic background. […] 50U/mL of catalase was used as a benchmark antioxidant against H2O2 toxicity. Cell viability was determined with the MTT reduction assay. […] Cell viability was determined with the MTT assay.

T.b.rhodesiense STIB900 = assay: In vitro anti-protozoal activity, T.b.rhodesiense STIB900; format: cell-based
[2] = system: neurons and clonal cell lines; assay: Attenuation of amyloid-β toxicity; format: cell-based; conditions: for attenuation of amyloid-β toxicity, dose dependence: pre-incubated with amyloid-β
Excerpt: In vitro, amyloid-β is toxic to neurons and clonal cell lines.

[3] = system: Primary cortical neuron cultures; conditions: Oltipraz 20 μM, Aβ1-42 25 μM, 5 days, MTT; p<0.05, ANOVA
Procedure: Primary cortical neuron cultures were established from E14 mice. […] Cultures were incubated for 5 days (37° C.) and then cell viability was determined using the MTT reduction assay. Cultures were also monitored for morphological changes by phase contrast microscopy. The MTT assay was performed by adding water soluble MTT to the culture medium at 0.5 mg/mL and incubating for 30 min. […] The culture medium was removed and the MTT solubilized in DMSO. Aliquots of solubilized MTT were read on a spectrophotometric plate reader at 570 nm.

[4] = system: Primary fibroblast cultures; assay: H2O2 toxicity in primary fibroblast cultures, murine model for oxidative stress (MTT); format: cell-based, mice; conditions: H2O2 150 μM, Oltipraz 25 μM
Procedure: as §1

T. cruzi = assay: In vitro anti-protozoal activity, T. cruzi; format: cell-based
[5] = doses of oltipraz effective at chelating in situ or abolishing amyloid-β toxicity; preliminary data
L. donovani = assay: In vitro anti-protozoal activity, L. donovani; format: cell-based
P. falciparum 3D7 = system: P. falciparum 3D7
Procedure: For in-vitro antimalarial testings, micro-titer plates were used. The concentration of drugs was prepared as pMol/well according to WHO standard procedures (WHO, 1990). The test compound was dissolved in 15% DMSO in sterile RPMI 1640.
The micro-titer plates were predosed with various concentration of the test compound. 50 μL of parasitised erythrocyte suspension in RPMI-1640 (0.2 ml erythrocyte +0.3 ml serum +4-5 ml RPMI-1640) were dispensed in microtiter wells containing various concentrations of drug. Triplicate readings were made for each concentration.
The testing was carried out according to the procedure of Desjardins et al. 1979. After 30 hr culture at 37 degrees C., the same microtiter plates from schizont inhibition assays with another triplicate wells were pulsed with ^3H-hypoxanthine for overnight. The cell suspensions were washed twice on millipore glass fiber filter with Millipore filter apparatus. The filter discs were counted for DPM by Beckman LS6000-scintillation counter. The activity of the drug was measured by plotting DPM against concentration of drug.

[6] = sections treated 2 hrs or overnight

For `O=C(O)CN(CCN(CC(=O)O)CC(=O)O)CCN(CC(=O)O)CC(=O)O` [DTPA, detapac], the “inhibition of lesion-associated DAB oxidation” value ([1]; 1 mM chelator) was “inhibited more than half”, the “inhibition of lesion-associated DAB oxidation” value ([1]; 10 mM chelator) was “completely abolished; also recorded: nearly all” and the “inhibition of lesion-associated DAB oxidation” value ([1]; 100 mM chelator) was “abolished all”.
For `Cc1c(-c2cnccn2)ssc1=S` [Oltipraz, oltipraz], the cell viability restored (Mut Tg fibroblasts) was 100%, the “% Inhibition” value (T.b.rhodesiense STIB900; concentration 10) was 0% and the “% Inhibition” value (T.b.rhodesiense STIB900; concentration 30) was 42.5%. For the same compound, the “attenuation of the neurotoxicity of amyloid-β” value [2] was “significantly attenuate”, the “attenuation of amyloid-β toxicity, dose dependence” value [2] was “reduced in a dose-dependent manner similar to that of deferoxamine” and the “attenuation of amyloid-β toxicity, dose dependence” value ([2]; listed as oltipraz) was “attenuate its toxicity in a dose-dependent manner similar to that of deferoxamine”. For the same compound, the “cell survival in brain tissue sections” value ([2]; shown in a figure) was “increase cell survival”, the “cell viability compared to Aβ1-42 alone” value [3] was “small increase in cell viability” and the “protective effect relative to that achieved with 50U/mL catalase” value [4] was “about two thirds”. The “protective effect against H2O2 toxicity” value ([4]; fibroblasts from Mut Tg mice (mutant human presenilin 1)) was “not in fibroblasts from Mut Tg mice”, the “protective effect against H2O2 toxicity” value ([4]; fibroblasts from WT Tg mice (human wild type presenilin 1)) was “significant protective effect” and the “protective effect against H2O2 toxicity” value ([4]; fibroblasts from non Tg mice) was “significant protective effect”. The “% Inhibition” value (T. cruzi; concentration 1) was 4.3%, the “% Inhibition” value (T. cruzi; concentration 3) was 38.6% and the “% Inhibition” value (T. cruzi; concentration 10) was 54.6%. The “% Inhibition” value (T. cruzi; concentration 30) was 99.7%, the “ED50 column, second value in parentheses (not explained)” value (T. cruzi; line below the ED50) was “(23.8) μg/ml” and the neurotoxicity in vitro [5] was “little/no neurotoxicity”. The “% Inhibition” value (L. donovani; concentration 10) was 0%, the “% Inhibition” value (L. donovani; concentration 30) was 3.2% and the “% Inhibition” value (P. falciparum 3D7; concentration 1) was 0%. For the same compound, the “% Inhibition” value (P. falciparum 3D7; concentration 3) was 4.4%, the “% Inhibition” value (P. falciparum 3D7; concentration 10) was 96.5% and the “% Inhibition” value (P. falciparum 3D7; concentration 30) was 100%. The “iron removal compared with DFX” value [6] was “not as effective as DFX”.

— patent US20040053989A1, “Dithiolthione compounds for the treatment of neurological disorders and for memory enhancement” (Patrick Prendergast, priority 1999, published 2004)
